In experiment [1] the target is Nociceptin receptor (Rattus norvegicus) (UniProt P35370). The experiment in a line: Activity at Wistar rat NOP receptor assessed as inhibition of low-frequency electrically-stimulated vas deferens contraction at 1 x 10^-6 M relative to control.
Experiment [2] deals with T1, Mu-type opioid receptor (Rattus norvegicus, UniProt P33535). In words: Activity at Wistar rat mu opioid receptor assessed as inhibition of low-frequency electrically-stimulated vas deferens contraction in presence of naloxone.
T1 sequence (P33535 whole entry): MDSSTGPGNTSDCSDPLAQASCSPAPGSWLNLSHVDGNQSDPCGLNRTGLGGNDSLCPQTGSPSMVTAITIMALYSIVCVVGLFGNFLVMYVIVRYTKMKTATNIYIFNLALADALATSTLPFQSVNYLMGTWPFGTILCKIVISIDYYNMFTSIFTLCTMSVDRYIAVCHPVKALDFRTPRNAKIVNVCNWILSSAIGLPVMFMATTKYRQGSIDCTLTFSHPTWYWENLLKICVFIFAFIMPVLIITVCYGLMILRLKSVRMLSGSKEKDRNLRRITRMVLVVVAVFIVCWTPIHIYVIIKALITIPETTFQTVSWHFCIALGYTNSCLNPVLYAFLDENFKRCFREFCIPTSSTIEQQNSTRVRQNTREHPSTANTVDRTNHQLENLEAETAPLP
Experiment [3] has as its target Mu-type opioid receptor (Rattus norvegicus) (UniProt P33535). In words: Activity at Wistar rat mu opioid receptor assessed as inhibition of low-frequency electrically-stimulated vas deferens contraction at 1 x 10^-5 M in presence of naloxone relative to control.
Experiment [4] has the same target. The experiment in a line: Activity at Wistar rat mu opioid receptor assessed as inhibition of low-frequency electrically-stimulated vas deferens contraction at 1 x 10^-11 to […] in presence of naloxone.
Experiment [5] has the same target. The experiment in a line: Activity at Wistar rat mu opioid receptor assessed as inhibition of low-frequency electrically-stimulated vas deferens contraction at 1 x 10^-5 M relative to control.
Experiment [6] concerns the target T1, Mu-type opioid receptor. In words: Activity at Wistar rat mu opioid receptor assessed as inhibition of low-frequency electrically-stimulated vas deferens contraction.
For experiment [7], the target named is Mu-type opioid receptor (Rattus norvegicus) (UniProt P33535). In words: Activity at Wistar rat mu opioid receptor assessed as inhibition of low-frequency electrically-stimulated vas deferens contraction at 1 x 10^-6 to 1 x 10^-5 M in presence of naloxone benzoylhydrazone.
Mu-type opioid receptor (Rattus norvegicus), sequence (P33535 whole entry): as above
Experiment [8] has as its target T2, Nociceptin/mu opioid receptor (Rattus norvegicus) (UniProt P33535+P35370). The experiment in a line: Activity at Wistar rat NOP/mu opioid receptor assessed as inhibition of low-frequency electrically-stimulated vas deferens contraction at 1 x 10^-5 M in presence of naloxone relative to control. Type of experiment: protein assay.
Experiment [9] addresses Mu-type opioid receptor (Rattus norvegicus) (UniProt P33535). In words: Activity at Wistar rat mu opioid receptor assessed as inhibition of low-frequency electrically-stimulated vas deferens contraction up to 1 x 10^-5 M in presence of naloxone benzoylhydrazone.
The target in experiment [10] is T2, Nociceptin/mu opioid receptor (Rattus norvegicus). The experiment in a line: Activity at Wistar rat NOP/mu opioid receptor assessed as inhibition of low-frequency electrically-stimulated vas deferens contraction at 1 x 10^-5 M relative to control. Type of experiment: protein assay.
Experiment [11] deals with T3, Nociceptin/mu opioid receptor (Rattus norvegicus, UniProt P33535+P35370). The experiment in a line: Activity at Wistar rat NOP/mu opioid receptor assessed as inhibition of low-frequency electrically-stimulated vas deferens contraction. Type of experiment: protein assay.
In experiment [12] the target is T3, Nociceptin/mu opioid receptor. The experiment in a line: Activity at Wistar rat NOP/mu opioid receptor assessed as inhibition of low-frequency electrically-stimulated vas deferens contraction in presence of naloxone. Type of experiment: protein assay.
The target in experiment [13] is Mu-type opioid receptor (Rattus norvegicus) (UniProt P33535). The experiment in a line: Activity at Wistar rat mu opioid receptor assessed as inhibition of low-frequency electrically-stimulated vas deferens contraction at 1 x 10^-6 to 1 x 10^-5 M.
Experiment [14] concerns the target T2, Nociceptin/mu opioid receptor (Rattus norvegicus). In words: Activity at Wistar rat NOP/mu opioid receptor assessed as inhibition of low-frequency electrically-stimulated vas deferens contraction at 1 x 10^-5 M in presence of naloxone benzoylhydrazone. Type of experiment: protein assay.
For experiment [15] the target is unchanged. The experiment in a line: Activity at Wistar rat NOP/mu opioid receptor assessed as inhibition of low-frequency electrically-stimulated vas deferens contraction at 1 x 10^-5 M in presence of naloxone. The experiment is classed as protein assay.
The target in experiment [16] is Nociceptin receptor (Rattus norvegicus) (UniProt P35370). The experiment in a line: Activity at Wistar rat NOP receptor assessed as inhibition of low-frequency electrically-stimulated vas deferens contraction at 1 x 10^-6 M in presence of naloxone relative to control.
Experiment [17] shares this target. In words: Activity at Wistar rat NOP receptor assessed as inhibition of low-frequency electrically-stimulated vas deferens contraction at 1 x 10^-11 to 1 x 10^-5 M in presence of naloxone.
Experiment [18] deals with T4, Nociceptin receptor (Rattus norvegicus, UniProt P35370). The experiment in a line: Activity at Wistar rat NOP receptor assessed as inhibition of low-frequency electrically-stimulated vas deferens contraction in presence of naloxone.
T4 sequence (P35370 whole entry): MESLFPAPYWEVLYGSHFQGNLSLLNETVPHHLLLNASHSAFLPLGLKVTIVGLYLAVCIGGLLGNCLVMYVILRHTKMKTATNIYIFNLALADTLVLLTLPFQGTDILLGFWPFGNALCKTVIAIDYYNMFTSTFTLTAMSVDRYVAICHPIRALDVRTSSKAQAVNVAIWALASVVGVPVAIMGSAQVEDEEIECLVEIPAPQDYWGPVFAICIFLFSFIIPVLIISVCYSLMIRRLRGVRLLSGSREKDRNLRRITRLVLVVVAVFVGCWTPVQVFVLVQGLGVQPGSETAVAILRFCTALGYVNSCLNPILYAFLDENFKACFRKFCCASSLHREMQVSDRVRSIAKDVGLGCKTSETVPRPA
Experiment [19] has as its target T4, Nociceptin receptor. In words: Activity at Wistar rat NOP receptor assessed as inhibition of low-frequency electrically-stimulated vas deferens contraction.
Experiment [20] addresses Nociceptin receptor (Rattus norvegicus) (UniProt P35370). In words: Activity at Wistar rat NOP receptor assessed as inhibition of low-frequency electrically-stimulated vas deferens contraction at 1 x 10^-6 M in presence of naloxone benzoylhydrazone.

Active and inactive are the calls of the source. The rule behind the calls is not given here. *1 amine or outer side, *2 acyl side, *3 side chain or, on linkers, in order; H or OH if unused. Where a SMILES comes first, the peptide text is derived from it. [ ]: non-standard residue; d: D form. X2 = COc1ccc2[nH]cc([C@H](CN[*:1])C(=O)[*:2])c2c1; X1 = Cn1cc([C@H](CN[*:1])C(=O)[*:2])c2ccccc21

We go through seven compounds from ChEMBL document CHEMBL2401678, “Synthesis and changes in affinity for NOP and opioid receptors of novel hexapeptides containing β(2)-tryptophan analogues” (Bioorg Med Chem Lett, 2013).

A word on the Emax: it is the greatest response seen or fitted, relative to the assay's reference. The term EC50 denotes the concentration that produces a half-maximal response. Broadly, the pEC50 is −log10 of the EC50, conventionally taken in molar units.

T2 sequence (P33535 whole entry, looked up): as the sequence (P33535 whole entry) above
T2 sequence (P35370 whole entry, looked up): as the sequence (P35370 whole entry) above
Nociceptin receptor (Rattus norvegicus), sequence (P35370 whole entry): as above

As for `C[C@H](NC(=O)CNC(=O)[C@@H](NC(=O)[C@H](Cc1ccccc1)NC(=O)CNC(=O)CNC(=O)[C@@H](N)Cc1ccccc1)[C@@H](C)O)C(=O)N[C@@H](CCCNC(=N)N)C(=O)N[C@@H](CCCCN)C(=O)N[C@@H](CO)C(=O)N[C@@H](C)C(=O)N[C@@H](CCCNC(=N)N)C(=O)N[C@@H](CCCCN)C(N)=O`, the Emax in experiment [1] is -73%.

In the case of `CSCC[C@H](NC(=O)[C@H](Cc1ccccc1)NC(=O)[C@H](CCCNC(=N)N)NC(C)=O)C(=O)NC[C@H](C(=O)N[C@@H](CCSC)C(=O)N[C@@H](CCCCN)C(N)=O)c1cn(C)c2ccccc12` (Ac-RFM[X1]MK-NH2), the EC50 in experiment [2] was 1620 nM; in experiment [6], 1230 nM. In addition, the Emax was -15% in [3] and -50% in experiment [5]. Besides, the inhibition entry in experiment [4] and in [7] was “inactive” throughout.

For the compound `COc1ccc2[nH]cc([C@H](CNC(=O)[C@H](CCSC)NC(=O)[C@H](Cc3ccccc3)NC(=O)[C@H](CCCNC(=N)N)NC(C)=O)C(=O)N[C@@H](CCSC)C(=O)N[C@@H](CCCCN)C(N)=O)c2c1` (Ac-RFM[X2]MK-NH2), the Emax was -14% in experiment [8] and -34% in experiment [10]. Moreover, the inhibition entry in [9] was “inactive”. For the same compound, the negative logarithm of the EC50 (pEC50) was found to be 5.78 in experiment [11] and 6.26 in [12]. The inhibition result in experiment [13] is “Active”.

Turning to `CC(=O)N[C@@H](CCCNC(=N)N)C(=O)N[C@@H](Cc1ccc(O)cc1)C(=O)N[C@@H](Cc1ccc(O)cc1)C(=O)N[C@@H](CCCNC(=N)N)C(=O)NC[C@H](C(=O)N[C@@H](CCCCN)C(N)=O)c1cn(C)c2ccccc12` (Ac-RYYR[X1]K-NH2), the results for the Emax in [8] and in experiment [10] were -17% and -36%, respectively. The inhibition result in [14] is “inactive”. Further, the inhibition entry in experiment [15] was “Active”. The pEC50 in experiment [11] was determined as 6.5; in experiment [12], 6.21.

As to `COc1ccc2[nH]cc([C@H](CNC(=O)[C@H](CCCNC(=N)N)NC(=O)[C@H](Cc3ccc(O)cc3)NC(=O)[C@H](Cc3ccc(O)cc3)NC(=O)[C@H](CCCNC(=N)N)NC(C)=O)C(=O)N[C@@H](CCCCN)C(N)=O)c2c1` (Ac-RYYR[X2]K-NH2), the Emax in experiment [16] is -12%; in experiment [1] it was -52%. The inhibition entry in experiment [17] is “inactive”. Further, the EC50 in experiment [18] was 1660 nM; in experiment [19] it was 1410 nM.

Ac-RFMWMK-NH2: the EC50 in [2] was 1150 nM; in experiment [6] it was 1020 nM. The Emax in experiment [3] was -14%; in experiment [5], -52%. Moreover, the inhibition entry in [4] and in experiment [7] was “inactive” in each case.

Regarding Ac-RYYRWK-NH2, the Emax in experiment [16] is -31%; in experiment [1], -36%. The half-maximal effective concentration (EC50) was 6.17 nM in experiment [18] and 15.8 nM in experiment [19]. Also, in [20], the inhibition result is “inactive”.
